Read-outs that look alike come from different tables or passages of the source.
What was measured:
[1] = Population PK model with allometric scaling of preclinical and human PK data; design: species or system mouse, rat, dog; conditions: estimated
Excerpt: Owing to the invasive nature of the PD marker collection (i.e. bone marrow aspiration), a semi-mechanistic PK/PD model based on animal PK/PD data and human PK data was developed to guide the selection of an optimal dose level for bone marrow aspiration in humans during dose escalation in the Phase I first-in-human study. The model was constructed using PK data from four species (mouse, rat, dog, and human) and PD data from three species (mouse, rat, and dog; Online Resources 1 and 2).
The model was constructed in two stages. First, preclinical PK data (e.g. doses, routes, and schedule of administration, observed concentrations) were compiled and modeled by allometric scaling. A sequential PK/PD modeling approach (population PK parameters and data approach) was then employed in which a semi-mechanistic PD model with various physiological compartments was created, and specific assumptions entered (Online Resource 3). Traditional forward addition/backward elimination was used for PK modeling. […] Many parameters in this complex model could not be estimated and were fixed either to the literature values or values selected on the basis of discussions with domain experts and sensitivity analysis. In preclinical animal models, the PD analysis modeled bone marrow cells positive for 5′-ethynyl-2′-deoxyuridine (EdU) and peripheral neutrophil counts simultaneously. Although the preclinical animal models could determine the G1 phase, they could not differentiate S, G2, and M phases; cells in these phases will be referred to as “cycling” throughout this manuscript.
Online Resource 1 List of studies used in PK and PD models
Data set Species Administration route Endpoint
BM bone marrow, EdU 5’-ethynyl-2’-deoxyuridine, IP intraperitoneal, IV intravenous, PD pharmacodynamics , PK
pharmacokinetics , PMN polymorphonuclear cell
Online Resource 2 Brief description of animal studies used in PK and PD models
Preclinical pharmacokinetic (PK)/toxicokinetic studies were conducted in mice, rats, and dogs. Data from eight
studies in four species, with a total of 1628 observations from 191 individuals, were used for PK/pharmacodynamic
(PD) modeling. Administration routes included oral, intravenous (IV), and intraperitoneal (IP). The designs of these
studies are described briefly below:
samples were collected from pre dose up to 48 h post dose. In rat toxicology studies, rats received 7-day
PK samples were collected
from pre dose up to 24 h post dose on Day 1 and Day 7.
samples were collected from pre dose up to 30 h post dose.
IV infusion. […]
Online Resource 3 PK/PD model parameters and assumptions
PK model parameters for trilacicliba
Ka (/h) 20.0 (FIXED) Assumptionb
Bioavailability (oral, mouse) 0.62 Estimated
Intercompartment rate constant 15.94 Estimated
Intercompartment clearance K42 0.29 Estimated
Allometric exponent for V 1.00 Estimated
Allometric exponent for CL 1.00 (FIXED) Assumptionc
Additive error 2.00 (FIXED) Assumptiond
Proportional error 0.32 Estimated
PD model parameters for trilaciclib and
Rate constant for BM precursor G 0.04 (FIXED) Assumption e
Rate constant for neutrophils 3.24*E-2 (FIXED) Assumption f
Max effect of G1T28 in the E max 1.00 (FIXED) Assumption g
Concentration of G1T28 with 5.90 Estimated
Feedback slope (/h) 1.00*E-6 (FIXED) Assumptionh
Scale for neutrophils in mice 150 Estimated
Scale for neutrophils in dogs 848 Estimated
EC50 as fraction of baseline value 2.00 Estimated
of persistence effect . Effect is on
transition of S phase cells to G1
Rate constant for stem cell G to 0.51 Estimated
Residual error variance 0.73 Estimated
aPK model parameters for 5 -FU were obtained from the literature
K a could not be estimated and
cThe allometric exponent for CL was estimated to be 0.945 from an earlier model during the model development
process and was fixed to 1 .00 for the purpose of model simplification to avoid overparameterization
dThe additive error was fixed to 20% of the assay LLOQ (10 ng/mL) to decrease the number of parameters to fit […]

[2] = Study G1T28-02 Part 1 plasma PK (with E/P); format: in vivo, human; conditions: ES-SCLC + E/P; for Vd: read-out: Vz; for Tmax: range; for AUC: read-out: AUCtau (AUC0-inf, footnote a)
Excerpt: (§1) G1T28-02 (NCT02499770) was a multicentre Phase Ib/IIa study in patients with newly diagnosed ES-SCLC [5]. Eligible patients were aged ≥ 18 years and had histologically or cytologically confirmed ES-SCLC, measurable disease per Response Evaluation Criteria in Solid Tumors (RECIST) version 1.1, an Eastern Cooperative Oncology Group (ECOG) performance status of 0–2, and adequate organ function. […] In the dose-finding Part 1 portion, blood samples for PK analysis were collected at prespecified time points on Cycle 1 Day 1 and Cycle 1 Day 3 (200 mg/m^2 cohort: all patients; 240 mg/m^2 cohort: optional).

[3] = test system: chemotherapy-induced myelosuppression in ES-SCLC patients; test: Study G1T28-02 Part 1 DLTs and myelosuppression endpoints (with E/P); format: in vivo, human
Excerpt: as §1

[4] = 200 mg/m2, Cycle 1 Day 3 (n = 8), mean
[5] = 240 mg/m2, Cycle 1 Day 1 (n = 1)
[6] = human, plasma, intravenous, 200 mg/m2, Cycle 1 Day 1 (n = 8), mean
[7] = human, plasma, intravenous, 200 mg/m2, Cycle 1 Day 3 (n = 8), mean
[8] = human, plasma, intravenous, 240 mg/m2, Cycle 1 Day 1 (n = 1)
[9] = human, plasma, intravenous, 240 mg/m2, Cycle 1 Day 3 (n = 1)
[10] = G1T28-02 Part 1, 200 mg/m2 + E/P (n = 10)
[11] = G1T28-02 Part 1, 240 mg/m2 + E/P (n = 9)
[12] = G1T28-02 Part 1, trilaciclib total (n = 19)

bioavailability ([1]; 150 mg/kg, oral, mouse): 62%
Intercompartment clearance K24 [1]: 2.03 h⁻¹
Intercompartment clearance K32 [1]: 4.42 h⁻¹
Intercompartment clearance K42 [1]: 0.29 h⁻¹
Intercompartment rate constant K23 [1]: 15.94 h⁻¹
clearance ([1]; mouse, rat, dog, human, three-compartment model, allometric scaling, read-out: CL, PK model (converted)): 2.77 L/h/kg
Vd ([1]; mouse, rat, dog, human, three-compartment model, allometric scaling, read-out: V (central volume of distribution), PK model): 1.32 L/kg
Cmax [2, 4]: 1.62 µg/mL
T1/2 [2, 4]: 9.12 h
AUC(0-inf) [2, 5]: 2.28 µg·h/mL
Cmax [2, 5]: 1.57 µg/mL
clearance [2, 6]: 2500 mL/min
AUC(0-inf) ([2]; human, plasma, intravenous, 200 mg/m2, Cycle 1 Day 1 (n = 8), mean, read-out: AUC0-inf): 2.56 µg·h/mL
Cmax ([2]; human, plasma, intravenous, 200 mg/m2, Cycle 1 Day 1 (n = 8), mean, read-out: Cmax): 1.24 µg/mL
Vd [2, 6]: 1700 L
Tmax ([2]; human, plasma, intravenous, 200 mg/m2, Cycle 1 Day 1 (n = 8)): 0.45 to 0.98 h
clearance [2, 7]: 2230 mL/min
AUC [2, 7]: 3.11 µg·h/mL
Vd [2, 7]: 1770 L
Tmax ([2]; human, plasma, intravenous, 200 mg/m2, Cycle 1 Day 3 (n = 8)): 0.47 to 1 h
clearance [2, 8]: 3850 mL/min
half-life [2, 8]: 2.91 h
Vd [2, 8]: 967 L
clearance [2, 9]: 3000 mL/min
half-life [2, 9]: 4.03 h
AUC [2, 9]: 2.96 µg·h/mL
Cmax ([2]; human, plasma, intravenous, 240 mg/m2, Cycle 1 Day 3 (n = 1), read-out: Cmax): 2.26 µg/mL
Vd [2, 9]: 1050 L
DLTs reported ([3]; G1T28-02 Part 1, 200 mg/m2 + E/P, Grade 4 thrombocytopenia, and Grade 2 neutropenia resulting in Cycle 2 delay): Two DLTs
DLTs reported ([3]; G1T28-02 Part 1, 240 mg/m2 + E/P, Grade 2 neutropenia resulting in Cycle 2 delay): one
Structure (SMILES): CN1CCN(c2ccc(Nc3ncc4cc5n(c4n3)C3(CCCCC3)CNC5=O)nc2)CC1 [trilaciclib]
DSN, median (SD) (footnote a) [3, 10]: 6 (5.7) days
Mean ANC Nadir in Cycle 1 [3, 10]: 1.198e+09 L⁻¹
Occurrence of ESA administrations [3, 10]: 2 (20.0) n (%)
Occurrence of FN [3, 10]: 0 n (%)
Occurrence of G-CSF administration [3, 10]: 5 (50.0) n (%)
Occurrence of Grade 3 or 4 hematologic laboratory abnormalities [3, 10]: 4 (40.0) n (%)
Occurrence of IV antibiotic use [3, 10]: 4 (40.0) n (%)
Occurrence of RBC transfusions on/after Week 5 [3, 10]: 4 (40.0) n (%)
Occurrence of SN [3, 10]: 4 (40) n (%)
Occurrence of infection SAEs [3, 10]: 2 (20.0) n (%)
Occurrence of platelet transfusions [3, 10]: 1 (10.0) n (%)
Occurrence of pulmonary infection SAEs [3, 10]: 1 (10.0) n (%)
Patients with any event for MAHE [3, 10]: 6 (60.0) n (%)
Time to first MAHE, median [3, 10]: 2.6 months
Mean ANC Nadir in Cycle 1 [3, 11]: 1.653e+09 L⁻¹
Occurrence of ESA administrations [3, 11]: 0 n (%)
Occurrence of FN [3, 11]: 0 n (%)
Occurrence of G-CSF administration [3, 11]: 3 (33.3) n (%)
Occurrence of Grade 3 or 4 hematologic laboratory abnormalities [3, 11]: 1 (11.1) n (%)
Occurrence of IV antibiotic use [3, 11]: 1 (11.1) n (%)
Occurrence of RBC transfusions on/after Week 5 [3, 11]: 1 (11.1) n (%)
Occurrence of SN [3, 11]: 0 n (%)
Occurrence of infection SAEs [3, 11]: 1 (11.1) n (%)
Occurrence of platelet transfusions [3, 11]: 0 n (%)
Occurrence of pulmonary infection SAEs [3, 11]: 0 n (%)
Patients with any event for MAHE [3, 11]: 6 (66.7) n (%)
Time to first MAHE, median [3, 11]: 3.0 months
DSN, median (SD) (footnote a) [3, 12]: 6 (5.7) days
Mean ANC Nadir in Cycle 1 [3, 12]: 1.414e+09 L⁻¹
Occurrence of ESA administrations [3, 12]: 2 (10.5) n (%)
Occurrence of FN [3, 12]: 0 n (%)
Occurrence of G-CSF administration [3, 12]: 8 (42.1) n (%)
Occurrence of Grade 3 or 4 hematologic laboratory abnormalities [3, 12]: 5 (26.3) n (%)
Occurrence of IV antibiotic use [3, 12]: 5 (26.3) n (%)
Occurrence of RBC transfusions on/after Week 5 [3, 12]: 5 (26.3) n (%)
Occurrence of infection SAEs [3, 12]: 3 (15.8) n (%)
Occurrence of platelet transfusions [3, 12]: 1 (5.3) n (%)
Occurrence of pulmonary infection SAEs [3, 12]: 1 (5.3) n (%)
Patients with any event for MAHE [3, 12]: 12 (63.2) n (%)
Time to first MAHE, median [3, 12]: 2.6 months

Reference: PMC8026479 (Cancer Chemotherapy and Pharmacology, 2021)
